Data from patent EP0498290B1, “Pyridobenzodiazepines, dipyrido [3,2-b:2',3'-e] [1,4]diazepines and their use in the prevention or treatment of HIV infection” (BOEHRINGER INGELHEIM PHARMACEUTICALS INC., priority 1991, dated 1992).
≈ marks a conversion by molar mass, not a printed value. Like-named read-outs stand apart in the source and are kept apart here.

Experiments:
[1] = tested on: HTLV-IIIB strain of HIV-1; assay: Human T-Cell Culture Assay (syncytia formation in c8166 cells); format: cell-based; details: Human immunodeficiency virus 1, IIIB, 96 h, syncytia read four days after virus challenge
Procedure: In order to confirm that compounds which are active in the RT Assay also have the ability to inhibit HIV replication in a living system, compounds according to the invention were also tested in the human T-Cell Culture Assay described below.
Assay Theory: Formation of syncytia is a feature of in vitro cultures of CD4+ T-cells infected with HIV-1. In this assay, T-cells are treated with a putative replication inhibiting compound and then infected with HIV-1. After incubation, the culture is checked for the formation of syncytia. The absence or reduction in the number of syncytia is used as a measure of the test compound's ability to inhibit HIV replication.
Assay Method: The target cells, designated c8166, are a subclone of human lymphoma cells of T-cell origin and are established at an initial density of 5x10^4 per 100 ul in RPMI 1640 (+ 10% fetal bovine serum) culture medium in 96 well flat bottom plates. A selected amount of test compound, dissolved in DMSO, is included. After 24 hours, 50-100 TCID50's (the dose that results in induced effect in 50% of test cultures) of the HTLV-IIIB strain of HIV-1 (2) are inoculated into each culture. Control cultures receive compound or virus only. Four days after virus challenge, cultures are visually examined for the frequency and distribution of virus-induced giant cell syncytia. The percent inhibition by the test compound is determined by comparison with control values. Confirmation of the presence or absence of virus replication is accomplished by harvesting the cell free culture fluids from all experimental groups to determine the presence or absence of infectious progeny through the induction of syncytia formation in secondary human T-cell cultures after 3 days.

in vitro = format: cell-based; details: human, c8166 cells
Procedure: In order to roughly assess the cytotoxicity of the compounds provided by the invention, several such compounds were tested in the MTT Cellular Cytotoxicity Assay described below. Compounds having a relatively high EC50 are preferred.
The MTT [3-(4,5-dimethylthiazol-2-yl)-2,5 diphenyl tetrazolium bromide) assay is based on cleavage of tetrazolium bromide by metabolically active cells, resulting in a highly quantitative blue color. This assay has been previously described (1) but has been optimized for the purposes of the testing reported herein.
The c8166 cell line (2), an established human lymphoma suspension cell line grown in RPMI 1640 supplemented with 10% fetal bovine serum, is used as the target cell line in the assay. Cells (100µl) are plated in microtest plate wells at a concentration of 10^5 cells per ml in the presence of varying concentrations of inhibitor. The cells are incubated at 37°C in a humidified CO2 incubator. Five days later, 20µl of MTT (5mg/ml in RPMI 1640, sonicated, 0.2 micron filtered, and stored at 4°C) is added to each well. After 4 hours additional incubation at 37°C, 60µl of Triton-X is added to each well and thoroughly mixed to aid the solubilization of the crystals. Absolute ethanol (5µl) is added to each well and the resulting mixture is incubated for 30 minutes at 60°C and immediately read on a plate reader (Dynatech) at a wavelength of 570nm. […]

HIV-1 RT = molecular target: T1, HIV-1 RT (Human immunodeficiency virus type 1 group M subtype B, UniProt P03367); assay: Reverse Transcriptase (RT) Assay: RNA-dependent DNA polymerase activity, poly r(C)/oligo d(G) template, 3H-dGTP; format: biochemical
T1 construct: Reverse transcriptase enzyme from the LAV strain of Human Immunodeficiency Virus (HIV-1) (1) was isolated from the bacterial strain JM109; made in house; host or cells: E. coli JM109, clone pBRTprt1+ in vector pIBI21 (lac promoter, IPTG induction)
Text: Utilizing the Reverse Transcriptase (RT) Assay described below, compounds can be tested for their ability to inhibit the RNA-dependent DNA polymerase activity of HIV-1 RT. Certain specific compounds described in the Examples which appear below, were so tested.
Among the enzymes for which Human Immunodeficiency Virus (HIV-1) encodes is a reverse transcriptase (1), so-named because it transcribes a DNA copy from an RNA template. This activity can be quantitatively measured in a cell-free enzyme assay, which has been previously described (2), and is based upon the observation that reverse transcriptase is able to use a synthetic template [poly r(C) primed with oligo d(G)] to transcribe a radio-labelled, acid-precipitable DNA strand utilizing ^3H-dGTP as a substrate.
Reverse transcriptase enzyme from the LAV strain of Human Immunodeficiency Virus (HIV-1) (1) was isolated from the bacterial strain JM109 (3) expressing the DNA clone pBRTprt1+ (2) which is under the control of the lac promotor in the expression vector pIBI21 (4). An overnight culture grown in 2XYT medium (37°C, 225 rpm) (5) supplemented with 100 µg/ml ampicillin for positive selection is inoculated at a 1:40 dilution into M9 medium supplemented with 10µg/ml thiamine, 0.5% casamino acids, and 50 µg/ml ampicillin (5). The culture is incubated (37°C, 225 rpm) until it reaches an OD540 of 0.3-0.4. At that time the repressor inhibitor IPTG (isopropyl β-D-thiogalactopyranoside) is added to 0.5mM, and the mixture is incubated for 2 additional hours. Bacteria are pelleted, resuspended in a 50mM Tris, 0.6mM EDTA, 0.375M NaCl buffer and digested by the addition of lysozyme (1mg/ml) for 30 minutes on ice. The cells are lysed by the addition of 0.2% NP-40 and brought to 1M NaCl.
After removal of the insoluble debris by centrifugation, the protein is precipitated by the addition of 3 volumes of saturated aqueous ammonium sulfate. The enzyme is pelleted, resuspended in RT buffer (50mM Tris pH 7.5, 1mM EDTA, 5mM DTT, 0.1% NP-40, 0.1M NaCl, and 50% glycerol), and stored at -70°C for further use.
b) Composition of 2X concentrated stock reaction mixture used in testing of compounds 1 to 15
Composition of 2X concentrated stock reaction mixture used in testing compounds 16 and 17
The 2X concentrated stock reaction mixture is aliquoted and stored at - 20°C. The mixture is stable and thawed for use in each assay. This enzyme assay has been adapted to a 96 well microtiter plate system, and has been previously described (6). Tris buffer (50 mM, pH 7.4), vehicle (solvent diluted to match the compound dilution), or compounds in vehicle are dispensed into 96-well microtiter plates (10µl/well; 3 wells/compound). The HIV-1 RT enzyme is thawed, diluted in 50mM Tris pH 7.8 (50mM Tris pH 7.4 in the case of compounds 16 and 17) so that fifteen µl of diluted enzyme contain 0.001 Unit (one unit is that amount of enzyme to transform 1 micromole of substrate per minute at 25°C), and fifteen µl are dispensed per well. Twenty µl of 0.12-0.5M EDTA are added to the first three wells of the microtiter plate. EDTA chelates the Mg^++ present and prevents reverse transcription. This group serves as background polymerization which is subtracted from all other groups. Twenty-five ul of the 2X reaction mixture are added to all wells and the assay is allowed to incubate at room temperature for 60 minutes. The assay is terminated by precipitating the DNA in each well with 50µl of 10% trichloracetic acid (TCA) (10% w/v) in sodium pyrophosphate (1% w/v). The microtiter plate is incubated for 15 minutes at 4°C and the precipitate is fixed onto #30 glass fiber paper (Schleicher & Schuell) using a Skatron semi-automatic harvester. The filters are then washed with additional TCA (5%) containing sodium pyrophosphate (1%), rinsed with aqueous ethanol (70%), dried, and transferred to scintillation vials (6). […]

[2] = pH 7.4, read-out: RT Assay % inhibition @ 10 µg/ml
[3] = 10 µg/ml, reaction mixture for compounds 1 to 15 (Tris pH 7.8, KCl, human serum albumin, 6µM 3H-dGTP in 2X mix), read-out: RT Assay % inhibition @ 10 µg/ml

Row | Molecule | inhibition at 3 µg/mL [1] | inhibition at 10 µg/mL (HIV-1 RT; [3]) | further results
1 | Cc1ccnc2c1N=C(C#N)c1cccnc1N2C1CC1 [Example 2, 6-Cyano-11-cyclopropyl-4-methyl-11H-dipyrido[3,2-b:2',3'-e][1,4]diazepine] | > 50% |  | CC50 at 120 h (in vitro): 28 µg/mL (≈ 102 µM)
2 | CCOC1=Nc2c(C)cccc2Nc2ncccc21 [Example 16, 5-Ethoxy-7-methyl-11H-pyridol[2,3-b][1,5]benzodiazepine] |  |  | inhibition at 10 µg/mL (HIV-1 RT; [2]): 59%
3 | Cc1ccnc2c1N=C(S(C)(=O)=O)c1cccnc1N2C1CC1 [Example 14, 11-Cyclopropyl-4-methyl-6-methylsulfonyl-dipyrido[3,2-b:2',3'-e][1,4]diazepine] |  | 100% | 
4 | CCN1c2ncccc2C(C#N)=Nc2c(C)cc(C)nc21 [Example 3, 6-Cyano-2,4-dimethyl-11-ethyl-11H-dipyrido[3,2-b:2',3'-e][1,4]diazepine] | > 50% |  | 
5 | CCOC(=O)CSC1=Nc2c(C)ccnc2N(C2CC2)c2ncccc21 [Example 5] |  | 98% | 
6 | Cc1ccnc2c1N=C(n1ccnc1)c1cccnc1N2C1CC1 [Example 9] |  | 97% | 
7 | COC1=Nc2ccccc2N(C)c2ncccc21 [Example 17, 5-Methoxy-11-methyl-11H-pyrido[2,3-b][1,5]benzodiazepine] |  |  | inhibition at 10 µg/mL (HIV-1 RT; [2]): 82%
8 | Cc1ccnc2c1N=C(Cl)c1cccnc1N2C1CC1 [Example 1, 6-Chloro-11-cyclopropyl-4-methyl-11H-dipyrido[3,2-b:2',3'-e][1,4]diazepine] | > 90% |  | CC50 at 120 h (in vitro): > 5 µg/mL
9 | 2.4-Dimethyl-11-ethyl-6-pyrrolidino-11H-dipyrido[3,2-b:2',3'-e][1,4]diazepine [Example 10] |  |  | RT Assay % inhibition @ 10 µg/ml (HIV-1 RT; 10 µg/ml, reaction mixture for compounds 1 to 15 (Tris pH 7.8, KCl, human serum albumin, 6µM 3H-dGTP in 2X mix)): 91%
